Test results: patent US20180155757A1, “IDENTIFICATION OF BACTERIA THAT ARE RESISTANT TO CARBAPENEMS BY MEMBRANE IMPERVIOUSNESS” (BIOMÉRIEUX, priority 2015, published 2018)

Columns and labels:
Test in all cases: Etest MIC of indicator carbapenems on MH II agar without/with PMBN
Type in all cases: cell-based
[1] = system: K. pneumoniae 1108016 (VIM-1 producer)
Protocol: (§1) The determinations of antibiotic MIC were carried out on solid culture media with the Etest® method. To do this, Etest® strips (bioMérieux, France) were used: • Etest® Imipenem IM 32, and • Etest® Ertapenem ETP 32, and also solid culture media, differing from one another by virtue of their non-inhibitory concentrations of PMBN.
(§2) These solid culture media are prepared in Petri dishes (0=145 mm; V=50 ml) on a base of MH II Agar (Becton Dickinson®, United States), more or less supplemented with PMBN. The PMBN concentrations range from 0 up to concentrations equivalent to one fifth of the MIC of PMBN (⅕ MICPMBN).
(§3) Using a swab and the Retro C80™ rota-plater (bioMérieux, France), the culture media were inoculated with the bacteria, originating from an inoculum of 0.5 McFarland, prepared in 0.85% NaCl solution from colonies subcultured the day before on MH II agar.
(§4) The various Etest® strips are then deposited on the surface of the culture media. After 16 to 20 hours of incubation at 35° C., the MICS were read.
(§5) To do this, imipenem and ertapenem were used as indicator carbapenems. Non-inhibitory concentrations of PMBN, equivalent to concentrations of one tenth ( 1/10), one eighth (⅛) and one fifth (⅕) of the MIC of PMBN, were applied.

[2] = system: K. pneumoniae 0404024 (VIM-1 producer)
Protocol: as §1, §2, §3, §4, §5

[3] = system: K. pneumoniae 1104053 (OXA-48 producer)
Protocol: as §1, §2, §3, §4, §5

[4] = system: K. pneumoniae 1108002 (KPC-3 producer)
Protocol: as §1, §2, §3, §4, §5

C. freundii 1204047 = system: C. freundii 1204047
Protocol: as §1, §2, §3, §4, §5

[5] = system: K. pneumoniae 0901027 (KPC-3 producer)
Protocol: as §1, §2, §3, §4, §5

[6] = system: E. coli 0506040 (VIM-1 producer)
Protocol: as §1, §2, §3, §4, §5

[7] = system: E. coli 1012292 (KPC-2 producer)
Protocol: as §1, §2, §3, §4, §5

[8] = system: S. marcescens 1008175 (IMP-1 producer)
Protocol: as §1, §2, §3, §4, §5

Compound: C[C@@H](O)[C@H]1C(=O)N2C(C(=O)O)=C(S[C@@H]3CN[C@H](C(=O)Nc4cccc(C(=O)O)c4)C3)[C@H](C)[C@H]12 [ETP, ertapenem]
- MIC ([1]; [PMBN] 0): 1 µg/mL
- MIC ([1]; [PMBN] MIC/5): 2 µg/mL
- MIC ([1]; [PMBN] MIC/8): 4 µg/mL
- MIC ([1]; [PMBN] MIC/10): 4 µg/mL
- MIC ([2]; [PMBN] 0): 128 µg/mL
- MIC ([2]; [PMBN] MIC/5): 16 µg/mL
- MIC ([2]; [PMBN] MIC/8): 32 µg/mL
- MIC ([2]; [PMBN] MIC/10): 32 µg/mL
- MIC ([3]; [PMBN] 0): 4 µg/mL
- MIC ([3]; [PMBN] MIC/5): 4 µg/mL
- MIC ([3]; [PMBN] MIC/8): 4 µg/mL
- MIC ([3]; [PMBN] MIC/10): 4 µg/mL
- MIC ([4]; [PMBN] 0): 16 µg/mL
- MIC ([4]; [PMBN] MIC/5): 64 µg/mL
- MIC ([4]; [PMBN] MIC/8): 64 µg/mL
- MIC ([4]; [PMBN] MIC/10): 64 µg/mL
- MIC (C. freundii 1204047; [PMBN] 0): 32 µg/mL
- MIC (C. freundii 1204047; [PMBN] MIC/5): 4 µg/mL
- MIC (C. freundii 1204047; [PMBN] MIC/8): 8 µg/mL
- MIC (C. freundii 1204047; [PMBN] MIC/10): 8 µg/mL
- MIC ([5]; [PMBN] 0): 16 µg/mL
- MIC ([5]; [PMBN] MIC/5): 64 µg/mL
- MIC ([5]; [PMBN] MIC/8): 64 µg/mL
- MIC ([5]; [PMBN] MIC/10): 64 µg/mL
- MIC ([6]; [PMBN] 0): 0.25 µg/mL
- MIC ([6]; [PMBN] MIC/5): 0.25 µg/mL
- MIC ([6]; [PMBN] MIC/8): 0.25 µg/mL
- MIC ([6]; [PMBN] MIC/10): 0.25 µg/mL
- MIC ([7]; [PMBN] 0): 8 µg/mL
- MIC ([7]; [PMBN] MIC/5): 2 µg/mL
- MIC ([7]; [PMBN] MIC/8): 4 µg/mL
- MIC ([7]; [PMBN] MIC/10): 4 µg/mL
- MIC ([8]; [PMBN] 0): 256 µg/mL
- MIC ([8]; [PMBN] MIC/5): 256 µg/mL
- MIC ([8]; [PMBN] MIC/8): 256 µg/mL
- MIC ([8]; [PMBN] MIC/10): 256 µg/mL

Compound: C[C@@H](O)[C@H]1C(=O)N2C(C(=O)O)=C(SCCN=CN)C[C@H]12 [IM, imipenem]
- MIC ([1]; [PMBN] 0): 4 µg/mL
- MIC ([1]; [PMBN] MIC/5): 4 µg/mL
- MIC ([1]; [PMBN] MIC/8): 8 µg/mL
- MIC ([1]; [PMBN] MIC/10): 8 µg/mL
- MIC ([2]; [PMBN] 0): 64 µg/mL
- MIC ([2]; [PMBN] MIC/5): 64 µg/mL
- MIC ([2]; [PMBN] MIC/8): 64 µg/mL
- MIC ([2]; [PMBN] MIC/10): 64 µg/mL
- MIC ([3]; [PMBN] 0): 2 µg/mL
- MIC ([3]; [PMBN] MIC/5): 2 µg/mL
- MIC ([3]; [PMBN] MIC/8): 2 µg/mL
- MIC ([3]; [PMBN] MIC/10): 2 µg/mL
- MIC ([4]; [PMBN] 0): 16 µg/mL
- MIC ([4]; [PMBN] MIC/5): 16 µg/mL
- MIC ([4]; [PMBN] MIC/8): 16 µg/mL
- MIC ([4]; [PMBN] MIC/10): 16 µg/mL
- MIC (C. freundii 1204047; [PMBN] 0): 1 µg/mL
- MIC (C. freundii 1204047; [PMBN] MIC/5): 1 µg/mL
- MIC (C. freundii 1204047; [PMBN] MIC/8): 1 µg/mL
- MIC (C. freundii 1204047; [PMBN] MIC/10): 2 µg/mL
- MIC ([5]; [PMBN] 0): 8 µg/mL
- MIC ([5]; [PMBN] MIC/5): 16 µg/mL
- MIC ([5]; [PMBN] MIC/8): 8 µg/mL
- MIC ([5]; [PMBN] MIC/10): 16 µg/mL
- MIC ([6]; [PMBN] 0): 4 µg/mL
- MIC ([6]; [PMBN] MIC/5): 4 µg/mL
- MIC ([6]; [PMBN] MIC/8): 4 µg/mL
- MIC ([6]; [PMBN] MIC/10): 4 µg/mL
- MIC ([7]; [PMBN] 0): 8 µg/mL
- MIC ([7]; [PMBN] MIC/5): 1 µg/mL
- MIC ([7]; [PMBN] MIC/8): 4 µg/mL
- MIC ([7]; [PMBN] MIC/10): 4 µg/mL
- MIC ([8]; [PMBN] 0): 128 µg/mL
- MIC ([8]; [PMBN] MIC/5): 256 µg/mL
- MIC ([8]; [PMBN] MIC/8): 256 µg/mL
- MIC ([8]; [PMBN] MIC/10): 128 µg/mL
